Laboratory results reported in patent publication US20200268703A1, “MEDICINE FOR TREATING ADVANCED OR RECURRENT CANCER PATIENT BEING NON-RESPONSIVE OR NON-TOLERANT TO STANDARD CHEMOTHERAPY AND INCURABLE AND UNRESECTABLE” (HYOGO COLLEGE OF MEDICINE, priority 2017, published 2020).

How the values were obtained:
[1] = test system: advanced or recurrent oral cavity cancer; assay: Tumor immunity risk index value, OS and disease course in oral cavity cancer patients given propagermanium; type: in vivo, human; details: for OS: BSC median 46 days
Method: (§1) 30 mg of propagermanium [trade name: SEROCION (registered trademark), produced by SANWA KAGAKU KENKYUSHO CO., LTD.] was administered orally in three divided doses per day after meals to 4 patient cases (PG-1 to PG-4) who were diagnosed as advanced or recurrent oral cavity cancer which is non-responsive or non-tolerant to the standard chemotherapy and incurable and unresectable, a 2 patient cases (PG-5 and PG-6) who were diagnosed as advanced or recurrent gastric cancer which is non-responsive or non-tolerant to the standard chemotherapy [gastric cancer treatment guideline fourth edition (edited by Japan Gastric cancer Association, revised in May 2014)] and incurable and unresectable, and 5 healthy person cases (PG-7 to PG-11). 7.5 mL of peripheral blood of the cancer patients (PG-1 and PG-3: only before administration, PG-5 and PG-6: before administration and only 28th day after a start of administration) and healthy persons (all: only before the administration), were collected by a BD vacutainer blood collection tube at the time before the administration of the propagermanium and on 28th and 56th days after starting the administration. Thereafter, and the peripheral blood was centrifuged (1500 G for 15 minutes) to obtain the peripheral blood mononuclear cells (PBMC). The obtained peripheral blood mononuclear cells were fixed and stained using a T cell surface marker and a mouse IgG anti-human antibody against intracellular keratin. The stained cells were analyzed by flow cytometry using a Spectral Cell Analyzer (SP-6800, manufactured by SONY).
(§2) Regarding the T cells and the cytotoxic T cells, among living cells, CD45 positive and CD3 positive cells are separated to obtain T cells, and among the CD45 positive and CD3 positive cells, CD8 positive and CD4 negative cells are separated to obtain the cytotoxic T cells. The proportion of the cytotoxic T cells in the T cells was calculated.
(§3) In the circulating tumor cells in blood, in order to label the cytokeratin present inside the cells, after using Perm Buffer reagent (#421403, produced by BioLegend), staining was performed using a pankeratin antibody (#4523, produced by Cell Signaling). Since the circulating tumor cells in blood are larger than lymphocytes, when flow cytometry is performed, cells were selected in a wider range than in the selection of normal lymphocytes. After selecting cells negative in staining using Ghost Dye Violet 450 as living cells, pankeratin positive cells were regarded as the circulating tumor cells in blood, and the number of the pankeratin positive cells in 10000 peripheral blood mononuclear cells was calculated.
(§4) The calculated number of the pankeratin positive cells and the proportion of cytotoxic T cells in the T cells is substituted into Expression (1) below.
(§5) Number of pankeratin positive cells (pieces)/Proportion of cytotoxic T cells in T cells (%)/10 (I)
(§6) The disease of each patient was determined by an attending physician based on results of endoscopy, computed tomography (CT) examination, positron emission tomography (PET)-CT examination, magnetic resonance imaging (MRI) examination, X-ray (X-P) examination, and blood biochemistry examination including the major markers.

[2] = test system: advanced or recurrent gastric cancer; assay: Tumor immunity risk index value and disease course in gastric cancer patients given propagermanium; type: in vivo, human; details: for Disease course / Tumor immunity risk index value: 28th day after starting administration
Method: as §1, §2, §3, §4, §5, §6

[3] = test system: human gastric cancer cell line MKN45 (MKN45 KO cells); assay: Apoptosis-inducing activity by PBMC of oral cavity cancer patient after administration of propagermanium; type: cell-based; details: for Increase of apoptosis-inducing activity compared to before starting the administration: time point of 48 hours
Method: MKN45 KO cells obtained by fluorescently labeling human gastric cancer cell line MKN45 with Kurabira Orange (1×10^4 cells) were cultured using an RPMI 1640 medium containing 10% FBS in 35 mm dishes (Day 0). On next day (Day 1), the medium was changed to an F12-K medium (2 mL) containing 10% FBS, and in Experimental Example 5, a suspension of peripheral blood mononuclear cells (1×10^6 cells) separated from peripheral blood of the oral cavity cancer patient of PG-4 before the administration of the propagermanium and on 28th and 56th days after the administration in F12-K medium (1 mL) is added to the culture dish. Furthermore, 3 μL of IncuCyte (registered trademark) Caspase-3/7 Green Apoptpsis Reagent (Cat No. 4440, produced by Essen BioScience) was added and cultured. Time-lapse photography was performed every 10 minutes for 48 hours, by using BioStation (produced by Nikon Corporation) (Days 1 to 3). An animation was created from result of photography for 48 hours, and the numbers of viable gastric cancer cells (with orange fluorescence) at and apoptosis-induced gastric cancer cells (with green fluorescence) at the time points of 0, 8, 16, 24, 32, 40, and 48 hours were calculated respectively. When calculating the number of cells, 100 to 150 cells were targeted at time point of 48 hours, and cells of 4 to 5 fields of view were summed at 200 times observation by a microscope at each time point. In addition, at each time point, only cells that adhered to the culture dish and could be continuously observed were targeted for counting, and cells that were slightly out of an imaging field of stratified cells were excluded from counting.
The apoptosis-inducing activity (%) at each time point was calculated by using Expression (II) below.
{Number of apoptosis-induced gastric cancer cells/(Number of viable gastric cancer cells+Number of apoptosis-induced gastric cancer cells)}×100 (II)

[4] = patient PG-2 (oral cavity cancer)

propagermanium
Evaluation of the administration (effective / ineffective) ([1]; patient PG-1 (oral cavity cancer)): ineffective
OS ([1]; patient PG-1 (oral cavity cancer), administration discontinued midway): 39 days
Disease course ([1]; patient PG-1 (oral cavity cancer), from the start of administration): disease got worse
Evaluation of the administration (effective / ineffective) [1, 4]: effective
Disease course ([1]; patient PG-2 (oral cavity cancer), 28th day after starting administration): disease was controlled
Tumor immunity risk index value ([1]; patient PG-2 (oral cavity cancer), 28th day after starting administration, before 0.27): 1.70
Tumor immunity risk index value ([1]; patient PG-2 (oral cavity cancer), 56th day after starting administration, before 0.27): 4.93
OS [1, 4]: 105 days
Evaluation of the administration (effective / ineffective) ([1]; patient PG-3 (oral cavity cancer)): ineffective
OS ([1]; patient PG-3 (oral cavity cancer), administration discontinued midway): 36 days
Disease course ([1]; patient PG-3 (oral cavity cancer), from the start of administration): disease got worse
Evaluation of the administration (effective / ineffective) ([1]; patient PG-4 (oral cavity cancer)): effective
Disease course ([1]; patient PG-4 (oral cavity cancer), 28th and 56th days after starting administration): disease was controlled at any time point
Tumor immunity risk index value ([1]; patient PG-4 (oral cavity cancer), 28th day after starting administration, before 2.07): 0.49
Tumor immunity risk index value ([1]; patient PG-4 (oral cavity cancer), 56th day after starting administration, before 2.07): 1.77
OS ([1]; patient PG-4 (oral cavity cancer), counted before the chemotherapy intervention): 85 days
Evaluation of the administration (effective / ineffective) ([2]; patient PG-5 (gastric cancer)): ineffective
Disease course ([2]; patient PG-5 (gastric cancer)): disease progressed
Tumor immunity risk index value ([2]; patient PG-5 (gastric cancer), before 5.04): 9.55
Evaluation of the administration (effective / ineffective) ([2]; patient PG-6 (gastric cancer)): effective
Disease course ([2]; patient PG-6 (gastric cancer)): disease was controlled
Tumor immunity risk index value ([2]; patient PG-6 (gastric cancer), before 41.12): 0.31
Increase of apoptosis-inducing activity compared to before starting the administration ([3]; 28th day after starting administration): approximately 3.1 times
Increase of apoptosis-inducing activity compared to before starting the administration ([3]; 56th day after starting administration): approximately 3.7 times
Apoptosis-inducing activity ([3]; PBMC of patient PG-4, 28th day after starting administration, culture for 0 hours): 0.00%
Apoptosis-inducing activity ([3]; PBMC of patient PG-4, 28th day after starting administration, culture for 48 hours, before administration 4.00): 12.50%
Apoptosis-inducing activity ([3]; PBMC of patient PG-4, 56th day after starting administration, culture for 0 hours): 0.00%
Apoptosis-inducing activity ([3]; PBMC of patient PG-4, 56th day after starting administration, culture for 48 hours, before administration 4.00): 14.60%
